Source: US4552969A, “3-Alkanoyl benzothiazoline compounds useful for treating cardiovascular disease” (Santen Pharmaceutical Co., Ltd., priority 1981, dated 1985)
Where a name gives a salt, the structure may show the parent alone.

Key:
platelet aggregation = assay: Pharmacological test II: anti-aggregatory activity, collagen or ADP induced platelet aggregation in vitro (platelet rich plasma); assay type: cell-based; conditions: Oryctolagus cuniculus, 50% inhibition of control response, rabbit PRP, 1 minute preincubation at 37° C., collagen (3 μg/ml) or ADP (3 μM), inducer not given
Excerpt: Blood platelet plays an important role only in hemostasis but also in thrombosis. Platelet hyperaggregability leads to an inclease in the number of circulating platelet aggregates, which may contribute toward the development of cardiac arrythmias, cardiac arrest or myocardial infarction. These cardiovascular diseases can be prevented by inhibition of platelet aggregation.
Blood was obtained from an anesthetized rabbit using 0.1 volumes of 3.8% sodium citrate as anticoagulant. Platelet rich plasma(PRP) was isolated by centrifugation at 650 rpm for 10 minutes at room temperature. After preincubation of PRP (0.25 ml) with various concentrations of test compounds (14 μl) for 1 minute at 37° C., collagen (3 μg/ml:final concentration) or ADP (3 μM:final concentration) was added to induce aggregation and the aggregation profiles were monitored with RIKADENKI six-channel aggregometer. The control experiment contained saline instead of test compound.
The anti-aggregatory activity was represented by the concentration of test compound which elicited 50% inhibition of control response.

guinea-pig teania coli = assay: Pharmacological test I: calcium-antagonistic activity, inhibition of Ca++-evoked contraction of isolated taenia coli; assay type: cell-based; conditions: Cavia porcellus, 5 min; 50% inhibition of contraction evoked by CaCl2 (3×10^-4 M); Ca++-free-high-K Krebs solution, 32° C., 5 minutes pre-exposure
Protocol: The action potentials on the smooth muscles of uterus, teania coli and portal vein are dependent on calcium ion, and therefor these smooth muscle preparations are useful for screening of calcium antagonists. We measured the calcium-antagonistic activity of the compounds by the method using guinea-pig teania coli preparation.
Isolated guinea-pig teania coil was suspended in a 20 ml organ bath with Krebs solution at 32° C. and bubbled with 5% carbon dioxide in oxygen. After equilibration, the muscle was washed with Ca^++ -free Krebs solution, and when the muscle had relaxed to basal level, it was suspended in Ca^++ -free-high-K Krebs solution.
The muscle was exposed to test compounds for 5 minutes before addition of CaCl2, and the contraction evoked by CaCl2 (3×10^-4 M) was recorded isotonically. The calcium-antagonistic activity was represented by the concentration of test compound which elicited 50% inhibition of Ca^++ -evoked contraction (IC50).

[1] = Acute toxicity test, oral; conditions: rat, in vivo, male ddy-SLC, 0.5% tragacanth suspension
Protocol: Male ddy-SLC strain rats (4 weeks of age, weighing 19-21 g) were placed in a breeding room of constant temperature and huminity (23±1° C., 55±5%) and fed freely pellet diet and water ad. libitum for a week. Rats showing normal growth were selected for the test.
Test compounds are suspended in 0.5% tragacanth suspention and administered orally in a dose of 0.5 ml/20 g body weight.

IC50 (platelet aggregation) [µM]	Structure (SMILES)	IC50 (guinea-pig teania coli) [µM]	LD50 [1] [mg/kg]
4.6	CC(=O)N1c2ccccc2SC1c1ccccc1OCCCN(C)C1CCCCC1 (centres unmarked) [Compound 8]		
1.3	COc1ccc(OCCCCCN(C)C2CCCCC2)c(C2Sc3ccccc3N2C(C)=O)c1 (centres unmarked) [Compound 21, 3-Acetyl-2-[2-[5-(N-cyclohexyl-N-methlamino)pentyloxy]-5-methoxyphenyl]benzothiazoline fumarate]		
1.1	COc1ccc(OCCCCCCN(C)C2CCCCC2)c(C2Sc3ccccc3N2C(C)=O)c1 (centres unmarked) [Compound 22]		
	COc1ccc(OCCCCN(C)CCc2ccc(OC)c(OC)c2)c(C2Sc3ccccc3N2C(C)=O)c1 (centres unmarked) [Compound 23]	0.66	
	CC(=O)N1c2ccccc2SC1c1cc([N+](=O)[O-])ccc1OCCCNCc1cccnc1 (centres unmarked) [Compound 33]	0.52	
3.1	COc1cc(C2Sc3ccccc3N2C(C)=O)cc(OC)c1OCCCN(C)C1CCCCC1 (centres unmarked) [Compound 54]		
2	COc1cc(C2Sc3ccccc3N2C(C)=O)cc(OC)c1OCCCCN(C)C1CCCCC1 (centres unmarked) [Compound 55]		
	COc1ccc(OCCCCN2CCN(CCc3ccc(OC)c(OC)c3)CC2)c(C2Sc3ccccc3N2C(C)=O)c1 (centres unmarked) [Compound 63]	0.64	≥ 3000
	COc1ccc(OCCCCN2CCN(CCc3cc(OC)c(OC)c(OC)c3)CC2)c(C2Sc3ccccc3N2C(C)=O)c1 (centres unmarked) [Compound 67]	0.47	> 1000
2.7	CC(=O)N1c2ccccc2SC1c1cc([N+](=O)[O-])ccc1OCCCN1CCC(Cc2ccccc2)CC1 (centres unmarked) [Compound 95]		

Structure (SMILES)	IC50 (platelet aggregation) [µM]	IC50 (guinea-pig teania coli) [µM]	LD50 [1] [mg/kg]
CC(=O)N1c2ccccc2SC1c1cc([N+](=O)[O-])ccc1OCCCN(C)C1CCCCC1 (centres unmarked) [Compound 29]	3.2		> 2000
